One block for each compound: values may come before it.
Assays:
[1] = tested on: CYP2C8; assay type: in vivo, human; conditions: increase in paclitaxel AUC and Cmax less than two-fold in the presence of pazopanib and lapatinib
[2] = pazopanib and lapatinib combination, daily; ref de Jonge et al, 2013; cited from earlier work
[3] = Plasma pharmacokinetics of paclitaxel, pazopanib and lapatinib in cycle 1; assay type: in vivo, human; conditions: for AUC(0-t) / Cmax / half-life / AUC(0-inf): human, plasma; for AUC(0-t): Lapatinib AUC(0–24)
[4] = tested on: CYP3A4; assay type: in vivo, human; conditions: increase in paclitaxel AUC and Cmax less than two-fold in the presence of pazopanib and lapatinib
[5] = pazopanib in combination with paclitaxel; ref Tan et al, 2010; cited from earlier work
[6] = day 15 of cycle 1, paclitaxel 50 mg m^−2, pazopanib 400 mg, lapatinib 1000 mg, n=6, geometric mean (95% confidence interval)
[7] = day 15 of cycle 1, paclitaxel 50 mg m^−2, pazopanib 800 mg, lapatinib 1000 mg, n=3, median (range)
[8] = day 15 of cycle 1, paclitaxel 80 mg m^−2, pazopanib 400 mg, lapatinib 1000 mg, n=9, geometric mean (95% confidence interval)
[9] = day 15 of cycle 1, paclitaxel 80 mg m^−2, pazopanib 800 mg, lapatinib 1000 mg, n=1, individual value
[10] = patients receiving pazopanib 400 mg, lapatinib 1000 mg

- Inhibition of CYP2C8 (classification) [1]: weak inhibitors
- Pazopanib AUC(0–24) [3, 6]: 633 (279, 1436) μg*hr ml^−1
- Pazopanib Cmax [3, 6]: 31.7 (14.6, 68.8) μg ml^−1
- Pazopanib AUC(0–24) [3, 7]: 960 (736, 1620) μg*hr ml^−1
- Pazopanib Cmax [3, 7]: 48.9 (40.7, 80.9) μg ml^−1
- Pazopanib AUC(0–24) [3, 8]: 646 (432, 967) μg*hr ml^−1
- Pazopanib Cmax [3, 8]: 32 (21.9, 46.9) μg ml^−1
- Pazopanib AUC(0–24) [3, 9]: 1027 µg·h/mL
- Pazopanib Cmax [3, 9]: 57.4 µg/mL
- Change in mean AUC0–24 of pazopanib with a two-fold increase in pazopanib dose ([3]; pazopanib 400–800 mg per day): less than two-fold increase
- Change in mean Cmax of pazopanib with a two-fold increase in pazopanib dose ([3]; pazopanib 400–800 mg per day): less than two-fold increase
Compound: 5-((4-((2,3-dimethyl-2H-indazol-6-yl)methylamino]-2-pyrimidinyl)amino)-2-methyl-benzenesulfonamide [pazopanib]
- Recommended phase II dosing [2]: 800 mg

- Inhibition of CYP2C8 (classification) [1]: weak inhibitors
- Inhibition of CYP3A4 (classification) [4]: weak inhibitors
- Lapatinib Cmax [3, 8]: 1.95 (1.13, 3.37) μg ml^−1
- AUC(0-t) ([3]; oral, day 15 of cycle 1, paclitaxel 50 mg m^−2, pazopanib 400 mg, lapatinib 1000 mg, n=6, geometric mean (95% confidence interval)): 20 µg·h/mL
- AUC(0-t) ([3]; oral, day 15 of cycle 1, paclitaxel 50 mg m^−2, pazopanib 800 mg, lapatinib 1000 mg, n=3, median (range)): 51.4 µg·h/mL
- AUC(0-t) ([3]; oral, day 15 of cycle 1, paclitaxel 80 mg m^−2, pazopanib 400 mg, lapatinib 1000 mg, n=9, geometric mean (95% confidence interval)): 27.1 µg·h/mL
- AUC(0-t) ([3]; oral, day 15 of cycle 1, paclitaxel 80 mg m^−2, pazopanib 800 mg, lapatinib 1000 mg, n=1, individual value): 11.6 µg·h/mL
- Cmax ([3]; oral, Lapatinib Cmax, day 15 of cycle 1, paclitaxel 50 mg m^−2, pazopanib 400 mg, lapatinib 1000 mg, n=6, geometric mean (95% confidence interval)): 1270 ng/mL
- Increase in AUC0–24 of lapatinib on increasing paclitaxel from 50 to 80 mg m^−2 [3, 10]: 1.4 fold
- Increase in Cmax of lapatinib on increasing paclitaxel from 50 to 80 mg m^−2 [3, 10]: 1.5 fold
Compound: CS(=O)(=O)CCNCc1ccc(-c2ccc3ncnc(Nc4ccc(OCc5cccc(F)c5)c(Cl)c4)c3c2)o1 [lapatinib]
- Recommended phase II dosing [2]: 1500 mg

- Paclitaxel CL ([3]; day 15, 50 mg m^−2 paclitaxel+400 mg pazopanib+1000 mg lapatinib, n=4, geometric mean (95% confidence interval)): 16.3 (14.8, 17.9) l h^−1 m^−2
- Paclitaxel CL ([3]; day 15, 50 mg m^−2 paclitaxel+800 mg pazopanib+1000 mg lapatinib, n=3, median (range)): 16.3 (14.9, 20.3) l h^−1 m^−2
- Paclitaxel CL ([3]; day 15, 80 mg m^−2 paclitaxel+400 mg pazopanib+1000 mg lapatinib (MTR), n=9, geometric mean (95% confidence interval)): 15.3 (13.2, 17.8) l h^−1 m^−2
- Paclitaxel CL ([3]; day 15, 80 mg m^−2 paclitaxel+800 mg pazopanib+1000 mg lapatinib, n=1, individual value): 18.3 l h^−1 m^−2
- half-life ([3]; intravenous): 14.8 h
- AUC(0-inf) ([3]; intravenous, 50 mg m^−2): 2.15 µg·h/mL
- Cmax ([3]; intravenous, 50 mg m^−2): 1440 ng/mL
- half-life ([3]; intravenous, 50 mg m^−2): 11.7 h
- Cmax ([3]; intravenous, 50 mg m^−2, Paclitaxel Cmax, day 1 (pazopanib and lapatinib withheld), 50 mg m^−2 paclitaxel+800 mg pazopanib+1000 mg lapatinib, n=3, median (range)): 1270 ng/mL
- AUC(0-inf) ([3]; intravenous, 80 mg m^−2): 3.82 µg·h/mL
- Cmax ([3]; intravenous, 80 mg m^−2): 2290 ng/mL
- Cmax ([3]; intravenous, 80 mg m^−2, Paclitaxel Cmax, day 1 (pazopanib and lapatinib withheld), 80 mg m^−2 paclitaxel+800 mg pazopanib+1000 mg lapatinib, n=3, median (range)): 3320 ng/mL
- AUC(0-inf) ([3]; intravenous, Paclitaxel AUC(0-∞), day 15, 50 mg m^−2 paclitaxel+800 mg pazopanib+1000 mg lapatinib, n=3, median (range)): 3.06 µg·h/mL
- AUC(0-inf) ([3]; intravenous, Paclitaxel AUC(0-∞), day 15, 80 mg m^−2 paclitaxel+400 mg pazopanib+1000 mg lapatinib (MTR), n=9, geometric mean (95% confidence interval)): 5.23 µg·h/mL
- AUC(0-inf) ([3]; intravenous, Paclitaxel AUC(0–∞), day 15, 50 mg m^−2 paclitaxel+400 mg pazopanib+1000 mg lapatinib, n=4, geometric mean (95% confidence interval)): 3.07 µg·h/mL
- AUC(0-inf) ([3]; intravenous, Paclitaxel AUC(0–∞), day 15, 80 mg m^−2 paclitaxel+800 mg pazopanib+1000 mg lapatinib, n=1, individual value): 4.37 µg·h/mL
- Cmax ([3]; intravenous, Paclitaxel Cmax, day 15, 50 mg m^−2 paclitaxel+400 mg pazopanib+1000 mg lapatinib, n=5, geometric mean (95% confidence interval)): 2330 ng/mL
- Cmax ([3]; intravenous, Paclitaxel Cmax, day 15, 50 mg m^−2 paclitaxel+800 mg pazopanib+1000 mg lapatinib, n=3, median (range)): 1720 ng/mL
- Cmax ([3]; intravenous, Paclitaxel Cmax, day 15, 80 mg m^−2 paclitaxel+800 mg pazopanib+1000 mg lapatinib, n=1, individual value): 2710 ng/mL
Compound: CC(=O)O[C@H]1C(=O)[C@@]2(C)[C@H]([C@H](OC(=O)c3ccccc3)[C@]3(O)C[C@H](OC(=O)[C@H](O)[C@@H](NC(=O)c4ccccc4)c4ccccc4)C(C)=C1C3(C)C)[C@]1(OC(C)=O)CO[C@@H]1C[C@@H]2O [paclitaxel]
- Increase in Cmax of paclitaxel relative to paclitaxel alone [5]: 36%
- Increase in geometric mean AUC of paclitaxel relative to paclitaxel alone [5]: 26%

— article PMC4037836 (British Journal of Cancer, 2014)
